Structures can show the parent of a compound that is named as a salt.
Columns and labels:
[1] = test system: mice; experiment: LPS-induced inflammation model, serum IFN-β; type: in vivo, mouse; settings: 50 mg/kg intraperitoneally 1 hour before LPS 2.5 mg/kg, blood 2 hours later
Procedure: 6-week-old male mice were used, and littermates were randomly assigned to experimental groups. Compounds were resuspended in 10% DMSO followed by 90% cyclodextrin/PBS (20% w/v). Mice were injected intraperitoneally with vehicle, FHIN1 or DMF (both 50 mg/kg) at a volume of 200 μl per injection. 1 hour later, mice were injected intraperitoneally with PBS or LPS from E. coli (2.5 mg/kg, Sigma) at a volume of 100 μl per injection. 2 hours later, mice were euthanised and blood was harvested retro-orbitally. Blood was allowed to clot for 30 mins at room temperature before it was centrifuged at 5000×g for 10 mins at 4° C. The serum was removed and IFN-β concentration was determined by ELISA. DuoSet ELISA kits for IL-1β, TNFα, IL-6, IL-10, and GDF15 were purchased from R&D Systems and were carried out according to the manufacturer's instructions with appropriately diluted cell supernatants added to each plate in duplicate or triplicate. IFN-β was determined using DuoSet ELISA kit from R&D Systems or Abcam (ab252363). […] Absorbance at 450 nm was quantified using a FLUOstar Optima plate reader. Corrected absorbance values were calculated by subtracting the background absorbance, and cytokine concentrations were subsequently obtained by extrapolation from a standard curve plotted on GraphPad Prism 9.2.0.

[2] = test system: BMDMs; experiment: RNA sequencing (GSEA, ORA) of BMDMs; type: cell-based, mouse; settings: LPS 4 h; for ERK1/2 cascade and PI3K signalling (shared transcriptomic changes) / amino acid metabolism and transport, and autophagy transcripts: BMDMs pre-treated
Procedure: All compounds used DMSO as a vehicle except for 4-hydroxy tamoxifen (EtOH), NAC (PBS), and AOAA for tracing experiments (Media). LPS was used at a concentration of 100 ng/ml for indicated timepoints (2, 3, 4, 6, 8, 24, 48 h). FHIN1 (10 or 20 μM), MMF (50 or 100 μM), DMF (25 μM), AOAA (5 mM), oligomycin (10 μM), CCCP (50 μM) NAC (1 mM), and IMT1 (10 μM) pre-treatments were performed for 3 h prior the addition of LPS. Cells were treated with valinomycin (10 nM) 15 mins before LPS stimulation. Anti-CD210 or IgG control (10 μg/ml) antibodies were added to cells 1 h prior to LPS stimulation. Recombinant mouse IL-10 protein (100 ng/ml) was added to cells at the same time as LPS. Cells were treated with IFN-B1 (220 ng/ml) for 3 h. Cells were treated with C-178 (1 μM) 1 h prior to LPS stimulation or transfection with 2′3′-cGAMP (1.5 μg/ml) for 4 hrs to achieve cGAS-STING activation. Cells were treated with ODN 2088 (1 μM) for 1 hr prior to LPS stimulation or transfection with CPG ODN 1826 (1.5 μg/ml) to achieve TLR9 activation. 3 different timepoints of 4-hydroxy tamoxifen (TAM) (600 nM or 2 μM) or EtOH treatment were performed-these are specified in the individual figure legends. For ‘48 h’ treatments EtOH/TAM was added on day 5 of 6 during the BMDM differentiation protocol. On day 6 they were plated with EtOH/TAM (left overnight) and treated the following day. For ‘72 h’ treatments EtOH/TAM was added on day […] of 6 during the BMDM differentiation protocol. On day 6 they were plated with EtOH/TAM (left overnight) and treated the following day. For ‘96 h’ treatments EtOH/TAM was added on day […] of 6 during the BMDM differentiation protocol. On day 6 they were plated with EtOH/TAM and treated 2 days later.
BMDMs (3 independent mice) were treated as indicated and RNA was extracted as previously detailed. mRNA was extracted from total RNA using poly-T-oligo-attached magnetic beads. After fragmentation, the first strand cDNA was synthesized using random hexamer primers, followed by the second strand cDNA synthesis. The library was checked with Qubit and real-time PCR for quantification and bioanalyzer for size distribution detection. Quantified libraries were pooled and sequenced on the NovaSeq 6000 S4 (Illumina). Differential expression analysis of two conditions/groups was performed using counted reads and the DESeq2 R package^67. Pathway enrichment analyses were performed as indicated in quantification and statistical analysis.
Details of all statistical analyses performed can be found in the figure legends. Data were expressed as mean±standard error of the mean (SEM) unless stated otherwise. Representative western blots are shown. For metabolomics data, MetaboAnalyst 5.0^66 was used to analyse, perform statistics, and visualise the results. Autoscaling of features (metabolites) was used for heatmap generation. One-way ANOVA corrected for multiple comparisons by the Tukey statistical test was used and a p.adjusted<0.05 was set as the cut-off. For proteomics data, protein signal intensity was converted to a log2 scale and biological replicates were grouped by experimental condition. Protein-wise linear models combined with empirical Bayes statistics were used for the differential expression analyses. The Bioconductor package limma was used to carry out the analysis using an R based online tool^68. […] The proteomics cut-offs for analysis were a log2FC of 0.5 and a false discovery rate (FDR)<0.05, determined using t statistics. RNA seq cut-offs were set to log2FC of 1 and an FDR<0.05. Overrepresentation analysis (ORA) of significant changes were assessed using Enrichr^4 and the Bioconductor package clusterProfiler 4.0 in R (version 3.6.1). Further information on this visualisation method is available^69. Emapplots were generated using enrichplot package in R (version 3.6.1). GSEA analysis of RNAseq was performed using the Broad Institutes GSEA 4.1.070. […]

| Compound | LPS-induced IFN-β release into the serum [1] | Fos expression (RNA seq) ([2]; BMDMs pre-treated vs DMSO) | Ifnb1 (IFN-β) expression and several interferon-stimulated genes (Irf1, Ifih1, Rsad2, Ifit2), RNAseq ([2]; BMDMs pre-treated vs DMSO) | Jun expression (RNA seq) ([2]; BMDMs pre-treated vs DMSO) | NRF2 and ATF4 stress response ([2]; BMDMs pre-treated vs DMSO) | TNF-α signalling (overrepresentation analysis of RNAseq) ([2]; BMDMs pre-treated vs DMSO) | expression of HRI stress response, amino acid metabolism and tRNA aminoacylation (GSEA) ([2]; BMDMs pre-treated vs DMSO) | expression of inflammatory pathways, including IL-1 and IL-10 signalling (GSEA) ([2]; BMDMs pre-treated vs DMSO) | genes associated with metabolism (GSEA) ([2]; BMDMs pre-treated vs DMSO) | other ISGs, such as Lcn2 (RNAseq) ([2]; BMDMs pre-treated vs DMSO) | ERK1/2 cascade and PI3K signalling (shared transcriptomic changes) [2] | amino acid metabolism and transport, and autophagy transcripts [2] |
| --- | --- | --- | --- | --- | --- | --- | --- | --- | --- | --- | --- | --- |
| CCOC(=O)[C@@]12CCCC=C1N(Cc1ccc(-c3ccccc3)cc1)C(=O)[C@H]2CC(=O)NC [FHIN1, Fumarate hydratase-IN-1] | increased | not reduced | upregulation | reduced | activation | most highly upregulated pathway | Increased expression | decreased | suppression | suppressed | strong downregulation | increased |
| COC(=O)/C=C/C(=O)OC [DMF, dimethyl fumarate] | no effect | not reduced |  | reduced |  |  |  |  |  | suppressed | strong downregulation | increased |

Source: patent publication US20250018019A1, “TREATMENT OF INTERFERON DRIVEN INFLAMMATION” (The Provost, Fellows, Foundation Scholars and the other …, priority 2023, published 2025)
